This passage reports MIC90 results from US9630977B2, “Cephalosporin derivatives and pharmaceutical compositions thereof” (Legochem Biosciences, Inc., priority 2011, dated 2017).

Holding throughout (assay): In vitro antibacterial activity test (broth microdilution)
Common to all, as to type: cell-based

One assay concerns A. baumannii 46. The conditions noted are these: A. baumannii 46. Here is the method: (§1) To evaluate antibacterial activity of each of the compounds of Examples 1 to 68, in vitro antibacterial activity test was performed.
(§2) The in vitro antibacterial activity was evaluated by measuring MIC90 (ug/mL) of each of the compounds of Examples 1 to 68, which is defined as the lowest concentration of an antibiotic that will inhibit the visible growth of 90% of microorganisms after incubation as compared with a control group to which the antibiotic is not treated. MIC90 values were measured by the broth microdilution method developed by the Clinical and Laboratory Standards Institute (CLSI) (see CLSI M7-A5, Methods for Dilution Antimicrobial Susceptibility Test for Bacteria that Grow Aerobically-Fifth Edition (2000): CLSI, Villanova, Pa.).
(§3) In vitro antibacterial activity was measured with respect to the following 19 clinical isolates: M. catarrhalis; P. aeruginosa (5 strains); K. pneumoniae (6 strains); A. baumannii (3 strains); E. coli (2 strains); A. calcoaceticus; and E. cloacae.
(§4) Test compounds each (the cephalosporin derivative compounds prepared in Examples 1 to 68) were dissolved in DMSO at the concentration of 10,240 ug/mL, were diluted by two fold with DMSO, and then were diluted by twenty fold with sterilized distilled water. The final concentration in the antibacterial activity test was in the range of […] to 128 ug/mL, and the final concentration of DMSO used as an adjuvant was 2.5% (V/V).

The test system of another assay is A. baumannii 49. The conditions noted are these: A. baumannii 49. Here is the method: as §1, §2, §3, §4
For a further assay, the system named is A. baumannii 52. The conditions noted are these: A. baumannii 52. The procedure:
as §1, §2, §3, §4

The subject of assay [1] is A. calcoaceticus ATCC15473. The conditions noted are these: A. calcoaceticus ATCC15473. Here is the method: as §1, §2, §3, §4
A further assay relates to E. cloacae β19. Here is the method: as §1, §2, §3, §4
The test system of a further assay is E. coli AG100. Here is the method:
as §1, §2, §3, §4

Another assay relates to E. coli β4. Here is the method:
as §1, §2, §3, §4

For the next assay, the system named is K. pneumoniae 2011E. The conditions noted are these: K. pneumoniae 2011E. The procedure:
as §1, §2, §3, §4

The next assay concerns K. pneumoniae β10. The conditions noted are these: K. pneumoniae β10. The procedure:
as §1, §2, §3, §4

The next assay deals with K. pneumoniae β11. The conditions noted are these: K. pneumoniae β11. The procedure: as §1, §2, §3, §4
In another assay the test system is K. pneumoniae β13. The conditions noted are these: K. pneumoniae β13. Here is the method: as §1, §2, §3, §4
The test system of the next assay is K. pneumoniae β14. The procedure: as §1, §2, §3, §4
Another assay relates to K. pneumoniae β9. The conditions noted are these: K. pneumoniae β9. Here is the method: as §1, §2, §3, §4
Another assay has as its system M. catarrhalis 2524. The conditions noted are these: M. catarrhalis 2524. Here is the method:
as §1, §2, §3, §4

The test system of the next assay is P. aeruginosa 1912E. The procedure: as §1, §2, §3, §4
A further assay deals with P. aeruginosa 37. The procedure:
as §1, §2, §3, §4

For another assay, the system named is P. aeruginosa 40. The procedure: as §1, §2, §3, §4
The next assay relates to P. aeruginosa 43. The conditions noted are these: P. aeruginosa 43. The procedure:
as §1, §2, §3, §4

In another assay the test system is P. aeruginosa 6065Y. The procedure:
as §1, §2, §3, §4

The mark [2] stands for this setting: Acinetobacter baumannii, read-out: MIC90.
Where [3] appears, read: Acinetobacter calcoaceticus, read-out: MIC90.
The mark [4] stands for this setting: Enterobacter cloacae, read-out: MIC90.
Setting [5] is: Escherichia coli, AG100, E. coli AG100, read-out: MIC90.
The mark [6] stands for this setting: Escherichia coli, read-out: MIC90.
Setting [7] is: Klebsiella pneumoniae, 2011E, read-out: MIC90.
The mark [8] stands for this setting: Klebsiella pneumoniae, read-out: MIC90.
[9] abbreviates: Moraxella catarrhalis, read-out: MIC90.
The mark [10] stands for this setting: Pseudomonas aeruginosa, 1912E, read-out: MIC90.
Setting [11] is: Pseudomonas aeruginosa, 37, P. aeruginosa 37, read-out: MIC90.
The mark [12] stands for this setting: Pseudomonas aeruginosa, 40, P. aeruginosa 40, read-out: MIC90.
The mark [13] stands for this setting: Pseudomonas aeruginosa, read-out: MIC90.

≈ marks a conversion by molar mass, not a printed value. Like-named read-outs stand apart in the source and are kept apart here. Some results are limits rather than exact numbers.

What is called MIC90 is the lowest concentration that inhibits either 90% of growth or 90% of the strains tested, depending on the study. `CC(C)(O/N=C(\C(=O)N[C@@H]1C(=O)N2C(C(=O)[O-])=C(C[n+]3cnc(N)c(NCCCCNC(=O)c4cc(=O)c(O)cn4O)c3)CSC12)c1csc(N)n1)C(=O)O` (stereo partly drawn) [Compound 7]: the MIC90 in the assay with A. baumannii 46 (setting [2]) is 4 µg/mL (≈ 4.99 µM); with A. baumannii 49 (setting [2]) it was 8 µg/mL (≈ 9.98 µM); in the assay on A. baumannii 52 (setting [2]), 16 µg/mL (≈ 20 µM); in [1] (setting [3]), 1 µg/mL (≈ 1.25 µM); with E. cloacae β19 (setting [4]) it was 1 µg/mL (≈ 1.25 µM); in the assay with E. coli AG100 (setting [5]) it was under 0.0625 µg/mL. The MIC90 was 0.125 µg/mL (≈ 0.156 µM) with E. coli β4 (setting [6]); 2 µg/mL (≈ 2.49 µM) in the assay on K. pneumoniae 2011E (setting [7]); 4 µg/mL (≈ 4.99 µM) in the assay with K. pneumoniae β10 (setting [8]); 16 µg/mL (≈ 20 µM) in the assay on K. pneumoniae β11 (setting [8]); under 0.0625 µg/mL in the assay with K. pneumoniae β13 (setting [8]); 32 µg/mL (≈ 39.9 µM) in the assay with K. pneumoniae β14 (setting [8]). The MIC90 is under 0.0625 µg/mL with K. pneumoniae β9 (setting [8]); 2 µg/mL (≈ 2.49 µM) with M. catarrhalis 2524 (setting [9]); 0.5 µg/mL (≈ 0.624 µM) with P. aeruginosa 1912E (setting [10]); 0.125 µg/mL (≈ 0.156 µM) in the assay on P. aeruginosa 37 (setting [11]); 0.125 µg/mL (≈ 0.156 µM) with P. aeruginosa 40 (setting [12]); 0.25 µg/mL (≈ 0.312 µM) in the assay on P. aeruginosa 43 (setting [13]). The MIC90 in the assay with P. aeruginosa 6065Y (setting [13]) is 1 µg/mL (≈ 1.25 µM).

As to `C[C@H](O/N=C(\C(=O)N[C@@H]1C(=O)N2C(C(=O)[O-])=C(/C=C/C[n+]3cnc(N)c(NCCNC(=O)c4cc(=O)c(O)cn4O)c3)CSC12)c1csc(N)n1)C(=O)O` (stereo partly drawn) [Compound 9], the MIC90 is 0.5 µg/mL (≈ 0.636 µM) in the assay with A. baumannii 46 (setting [2]); over 128 µg/mL with A. baumannii 49 (setting [2]); over 128 µg/mL in the assay with A. baumannii 52 (setting [2]); 0.5 µg/mL (≈ 0.636 µM) in assay [1] (setting [3]); 2 µg/mL (≈ 2.55 µM) in the assay with E. cloacae β19 (setting [4]); under 0.0625 µg/mL in the assay with E. coli AG100 (setting [5]). The MIC90 in the assay on E. coli β4 (setting [6]) was 1 µg/mL (≈ 1.27 µM); in the assay with K. pneumoniae 2011E (setting [7]), 0.125 µg/mL (≈ 0.159 µM); with K. pneumoniae β10 (setting [8]), 0.125 µg/mL (≈ 0.159 µM); in the assay with K. pneumoniae β11 (setting [8]) it was over 128 µg/mL; in the assay on K. pneumoniae β13 (setting [8]) it was 0.25 µg/mL (≈ 0.318 µM); in the assay on K. pneumoniae β14 (setting [8]), 64 µg/mL (≈ 81.4 µM). Moreover, the MIC90 in the assay with K. pneumoniae β9 (setting [8]) is 1 µg/mL (≈ 1.27 µM); with M. catarrhalis 2524 (setting [9]), 0.5 µg/mL (≈ 0.636 µM); with P. aeruginosa 1912E (setting [10]), 0.25 µg/mL (≈ 0.318 µM); with P. aeruginosa 37 (setting [11]), 0.25 µg/mL (≈ 0.318 µM); with P. aeruginosa 40 (setting [12]), under 0.0625 µg/mL; with P. aeruginosa 43 (setting [13]), 0.25 µg/mL (≈ 0.318 µM). Moreover, the MIC90 in the assay with P. aeruginosa 6065Y (setting [13]) is 0.25 µg/mL (≈ 0.318 µM).

In the case of `CC(C)(O/N=C(\C(=O)N[C@@H]1C(=O)N2C(C(=O)[O-])=C(/C=C/C[n+]3cnc(N)c(NCCNC(=O)c4cc(=O)c(O)cn4O)c3)CSC12)c1csc(N)n1)C(=O)O` (stereo partly drawn) [Compound 10], the MIC90 is 8 µg/mL (≈ 10 µM) against A. baumannii 46; over 128 µg/mL in the assay on A. baumannii 49; over 128 µg/mL against A. baumannii 52; 2 µg/mL (≈ 2.5 µM) in assay [1]; 0.5 µg/mL (≈ 0.625 µM) against E. cloacae β19; 0.125 µg/mL (≈ 0.156 µM) in the assay with E. coli AG100 (E. coli AG100). Besides, the MIC90 is 0.5 µg/mL (≈ 0.625 µM) in the assay with E. coli β4; 2 µg/mL (≈ 2.5 µM) against K. pneumoniae 2011E; under 0.0625 µg/mL in the assay on K. pneumoniae β10; 32 µg/mL (≈ 40 µM) in the assay on K. pneumoniae β11; 2 µg/mL (≈ 2.5 µM) in the assay with K. pneumoniae β13; 8 µg/mL (≈ 10 µM) against K. pneumoniae β14. Also, the MIC90 in the assay with K. pneumoniae β9 was found to be 0.25 µg/mL (≈ 0.313 µM); with M. catarrhalis 2524 (setting [9]) it was 0.5 µg/mL (≈ 0.625 µM); in the assay on P. aeruginosa 1912E, 4 µg/mL (≈ 5 µM); against P. aeruginosa 37 (P. aeruginosa 37), 2 µg/mL (≈ 2.5 µM); with P. aeruginosa 40 (P. aeruginosa 40) it was 1 µg/mL (≈ 1.25 µM); against P. aeruginosa 43 it was 1 µg/mL (≈ 1.25 µM). Also, the MIC90 with P. aeruginosa 6065Y (setting [13]) was 4 µg/mL (≈ 5 µM).

Turning to `CC(C)(ON=C(C(=O)NC1C(=O)N2C(C(=O)[O-])=C(C[n+]3cnc(N)c(NCC=CC(=O)NO)c3)CSC12)c1csc(N)n1)C(=O)O` (stereo not drawn) [Compound 47], the MIC90 in the assay with A. baumannii 46 is 16 µg/mL (≈ 23.6 µM); in the assay on A. baumannii 49 it was over 128 µg/mL; in the assay with A. baumannii 52, 128 µg/mL (≈ 189 µM); in assay [1], 8 µg/mL (≈ 11.8 µM); with E. cloacae β19 it was 128 µg/mL (≈ 189 µM); in the assay with E. coli AG100 (E. coli AG100), over 128 µg/mL. Moreover, the MIC90 against E. coli β4 amounted to 16 µg/mL (≈ 23.6 µM); in the assay on K. pneumoniae 2011E, 4 µg/mL (≈ 5.91 µM); against K. pneumoniae β14 it was 32 µg/mL (≈ 47.3 µM); against M. catarrhalis 2524 it was 0.25 µg/mL (≈ 0.369 µM); in the assay on P. aeruginosa 1912E, 8 µg/mL (≈ 11.8 µM); in the assay on P. aeruginosa 37 (P. aeruginosa 37), 64 µg/mL (≈ 94.6 µM). The results for the MIC90 against P. aeruginosa 40 (P. aeruginosa 40), in the assay with P. aeruginosa 43 and against P. aeruginosa 6065Y were 32 µg/mL (≈ 47.3 µM), 128 µg/mL (≈ 189 µM) and 128 µg/mL (≈ 189 µM), respectively.
